Results taken from PubChem BioAssay (NCI).
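Exposure lasted 48 hours, with cells grown in 96-well plates and compounds tested at five concentrations. GI50: concentration for 50% inhibition of growth. TGI: total growth inhibition.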 Where a SMILES comes first, the peptide text is derived from it. [ ]: non-standard residue; d: D form. Phe(ol) = N[C@H](CO)Cc1ccccc1; Aib = CC(C)(N)C(=O)O

Tests used:
Experiment in all cases: growth of human tumour cells (NCI), 48 h
786-0 renal = system: 786-0 renal
SK-OV-3 ovarian = system: SK-OV-3 ovarian
OVCAR-8 ovarian = system: OVCAR-8 ovarian
SR leukemia = system: SR leukemia
IGROV1 ovarian = system: IGROV1 ovarian
K-562 leukemia = system: K-562 leukemia
T-47D breast = system: T-47D breast
RPMI-8226 leukemia = system: RPMI-8226 leukemia
HOP-92 NSCLC = system: HOP-92 NSCLC
NCI/ADR-RES ovarian = system: NCI/ADR-RES ovarian
SK-MEL-28 melanoma = system: SK-MEL-28 melanoma
LOX IMVI melanoma = system: LOX IMVI melanoma
HCT-116 colon = system: HCT-116 colon
RXF 393 renal = system: RXF 393 renal
HCT-15 colon = system: HCT-15 colon
MDA-MB-231 breast = system: MDA-MB-231 breast
MCF7 breast = system: MCF7 breast
HT29 colon = system: HT29 colon
HL-60(TB) leukemia = system: HL-60(TB) leukemia
ACHN renal = system: ACHN renal
UO-31 renal = system: UO-31 renal
KM12 colon = system: KM12 colon
PC-3 prostate = system: PC-3 prostate
CCRF-CEM leukemia = system: CCRF-CEM leukemia
HCC-2998 colon = system: HCC-2998 colon
U251 CNS = system: U251 CNS
OVCAR-4 ovarian = system: OVCAR-4 ovarian
SK-MEL-2 melanoma = system: SK-MEL-2 melanoma
SNB-19 CNS = system: SNB-19 CNS
SF-539 CNS = system: SF-539 CNS
MALME-3M melanoma = system: MALME-3M melanoma
A549 NSCLC = system: A549 NSCLC
SN12C renal = system: SN12C renal
UACC-62 melanoma = system: UACC-62 melanoma
NCI-H226 lung = system: NCI-H226 lung
OVCAR-5 ovarian = system: OVCAR-5 ovarian
TK-10 renal = system: TK-10 renal
MOLT-4 leukemia = system: MOLT-4 leukemia
NCI-H522 lung = system: NCI-H522 lung
HS 578T breast = system: HS 578T breast
NCI-H460 lung = system: NCI-H460 lung
SK-MEL-5 melanoma = system: SK-MEL-5 melanoma
SW-620 colon = system: SW-620 colon
M14 melanoma = system: M14 melanoma
COLO 205 colon = system: COLO 205 colon
MDA-MB-435 = system: MDA-MB-435
NCI-H23 lung = system: NCI-H23 lung
EKVX NSCLC = system: EKVX NSCLC
SF-268 CNS = system: SF-268 CNS
A498 renal = system: A498 renal
HOP-62 NSCLC = system: HOP-62 NSCLC
UACC-257 melanoma = system: UACC-257 melanoma
SF-295 CNS = system: SF-295 CNS
OVCAR-3 ovarian = system: OVCAR-3 ovarian
BT-549 breast = system: BT-549 breast
SNB-75 CNS = system: SNB-75 CNS

CC(=O)NC(C)(C)C(=O)N1CCC[C@H]1C(=O)NC(C)(C)C(=O)N[C@@H](C)C(=O)NC(C)(C)C(=O)NC(C)(C)C(=O)N[C@@H](CCC(N)=O)C(=O)NC(C)(C)C(=O)N[C@H](C(=O)NC(C)(C)C(=O)NCC(=O)N[C@@H](CC(C)C)C(=O)NC(C)(C)C(=O)N1CCC[C@H]1C(=O)N[C@H](C(=O)NC(C)(C)C(=O)NC(C)(C)C(=O)N[C@@H](CCC(N)=O)C(=O)N[C@@H](CCC(N)=O)C(=O)N[C@H](CO)Cc1ccccc1)C(C)C)C(C)C (Ac-[Aib]P[Aib]A[Aib][Aib]Q[Aib]V[Aib]GL[Aib]PV[Aib][Aib]QQ[Phe(ol)])
GI50 (786-0 renal): > 4.25 µM
TGI (786-0 renal): > 4.25 µM
GI50 (SK-OV-3 ovarian): 1.28 µM
TGI (SK-OV-3 ovarian): > 4.25 µM
GI50 (OVCAR-8 ovarian): 2.43 µM
TGI (OVCAR-8 ovarian): > 4.25 µM
GI50 (SR leukemia): 2.2 µM
TGI (SR leukemia): > 4.25 µM
GI50 (IGROV1 ovarian): 3.06 µM
TGI (IGROV1 ovarian): > 4.25 µM
GI50 (K-562 leukemia): 1.88 µM
TGI (K-562 leukemia): > 4.25 µM
GI50 (T-47D breast): 1.12 µM
TGI (T-47D breast): 3.88 µM
GI50 (RPMI-8226 leukemia): 0.296 µM
TGI (RPMI-8226 leukemia): 2.19 µM
GI50 (HOP-92 NSCLC): 1.1 µM
TGI (HOP-92 NSCLC): 3.58 µM
GI50 (NCI/ADR-RES ovarian): > 4.25 µM
TGI (NCI/ADR-RES ovarian): > 4.25 µM
GI50 (SK-MEL-28 melanoma): 1.36 µM
TGI (SK-MEL-28 melanoma): > 4.25 µM
GI50 (LOX IMVI melanoma): 1.57 µM
TGI (LOX IMVI melanoma): > 4.25 µM
GI50 (HCT-116 colon): 1.58 µM
TGI (HCT-116 colon): > 4.25 µM
GI50 (RXF 393 renal): 0.777 µM
TGI (RXF 393 renal): 2.48 µM
GI50 (HCT-15 colon): > 4.25 µM
TGI (HCT-15 colon): > 4.25 µM
GI50 (MDA-MB-231 breast): 1.29 µM
TGI (MDA-MB-231 breast): > 4.25 µM
GI50 (MCF7 breast): 0.206 µM
TGI (MCF7 breast): > 4.25 µM
GI50 (HT29 colon): 1.26 µM
TGI (HT29 colon): > 4.25 µM
GI50 (HL-60(TB) leukemia): 1.74 µM
TGI (HL-60(TB) leukemia): > 4.25 µM
GI50 (ACHN renal): > 4.25 µM
TGI (ACHN renal): > 4.25 µM
GI50 (UO-31 renal): > 4.25 µM
TGI (UO-31 renal): > 4.25 µM
GI50 (KM12 colon): 1.88 µM
TGI (KM12 colon): > 4.25 µM
GI50 (PC-3 prostate): 1.34 µM
TGI (PC-3 prostate): > 4.25 µM
GI50 (CCRF-CEM leukemia): 2.11 µM
TGI (CCRF-CEM leukemia): > 4.25 µM
GI50 (HCC-2998 colon): 1.96 µM
TGI (HCC-2998 colon): > 4.25 µM
GI50 (U251 CNS): 1.07 µM
TGI (U251 CNS): > 4.25 µM
GI50 (OVCAR-4 ovarian): 1.05 µM
TGI (OVCAR-4 ovarian): > 4.25 µM
GI50 (SK-MEL-2 melanoma): 1.33 µM
TGI (SK-MEL-2 melanoma): 4.02 µM
GI50 (SNB-19 CNS): 1.16 µM
TGI (SNB-19 CNS): > 4.25 µM
GI50 (SF-539 CNS): 1.34 µM
TGI (SF-539 CNS): > 4.25 µM
GI50 (MALME-3M melanoma): 1.04 µM
TGI (MALME-3M melanoma): 3.43 µM
GI50 (A549 NSCLC): 1.69 µM
TGI (A549 NSCLC): > 4.25 µM
GI50 (SN12C renal): 0.931 µM
TGI (SN12C renal): > 4.25 µM
GI50 (UACC-62 melanoma): 1.8 µM
TGI (UACC-62 melanoma): > 4.25 µM
GI50 (NCI-H226 lung): 1.32 µM
TGI (NCI-H226 lung): > 4.25 µM
GI50 (OVCAR-5 ovarian): 1.73 µM
TGI (OVCAR-5 ovarian): > 4.25 µM
GI50 (TK-10 renal): 3.92 µM
TGI (TK-10 renal): > 4.25 µM
GI50 (MOLT-4 leukemia): 2.8 µM
TGI (MOLT-4 leukemia): > 4.25 µM
GI50 (NCI-H522 lung): 0.948 µM
TGI (NCI-H522 lung): > 4.25 µM
GI50 (HS 578T breast): 1.49 µM
TGI (HS 578T breast): > 4.25 µM
GI50 (NCI-H460 lung): 1.27 µM
TGI (NCI-H460 lung): > 4.25 µM
GI50 (SK-MEL-5 melanoma): 0.899 µM
TGI (SK-MEL-5 melanoma): 1.96 µM
GI50 (SW-620 colon): 2.55 µM
TGI (SW-620 colon): > 4.25 µM
GI50 (M14 melanoma): 3.85 µM
TGI (M14 melanoma): > 4.25 µM
GI50 (COLO 205 colon): 0.831 µM
TGI (COLO 205 colon): 2.31 µM
GI50 (MDA-MB-435): 1.5 µM
TGI (MDA-MB-435): > 4.25 µM
GI50 (NCI-H23 lung): 0.833 µM
TGI (NCI-H23 lung): > 4.25 µM
GI50 (EKVX NSCLC): 2.51 µM
TGI (EKVX NSCLC): > 4.25 µM
GI50 (SF-268 CNS): 1.73 µM
TGI (SF-268 CNS): > 4.25 µM
GI50 (A498 renal): 1.64 µM
TGI (A498 renal): > 4.25 µM
GI50 (HOP-62 NSCLC): 3.07 µM
TGI (HOP-62 NSCLC): > 4.25 µM
GI50 (UACC-257 melanoma): 1.02 µM
TGI (UACC-257 melanoma): 3.43 µM
GI50 (SF-295 CNS): 1.32 µM
TGI (SF-295 CNS): > 4.25 µM
GI50 (OVCAR-3 ovarian): 1.29 µM
TGI (OVCAR-3 ovarian): > 4.25 µM
GI50 (BT-549 breast): 0.78 µM
TGI (BT-549 breast): 2.66 µM
GI50 (SNB-75 CNS): 0.788 µM
TGI (SNB-75 CNS): > 4.25 µM
